Values after ≈ are worked out from the molar mass of the structure shown.

The test system of one assay is PBP4. To be noted: cited from earlier work.
In a further assay the test system is CA- and HA-MRSA strains. Put plainly: Synergy assay, cefuroxime with two-fold dilutions of oxacillin. The assay is classed as cell-based, Staphylococcus aureus. To be noted: in combination with two-fold dilutions of oxacillin. The procedure:
(§1) Minimum inhibitory concentrations and minimum bactericidal concentrations (MIC and MBC, respectively) were determined for each isolate in triplicate by microdilution techniques with an inoculum of 5×10^5 CFU/ml according to the Clinical and Laboratory Standards Institute guidelines. Aliquots (5 μl) from clear wells were plated onto TSA drug-free plates for the determination of MBCs, followed by incubation at 37° C. for 24 and 48 hours. For the mutant strains, each one of the three clones was tested. MIC data were reported as median values from at least three independent experiments for each antibiotic. Also, strains containing pEPSA5-based plasmids were tested with and without xylose induction, but chloramphenicol was not added to avoid interference with beta-lactam resistance evaluation. […] The correct inocula were confirmed by plating serial dilutions on agar.

In a further assay the test system is USA300 wild-type. The assay is described as follows: MIC by microdilution (CLSI). The class given is cell-based, Staphylococcus aureus. To be noted: Staphylococcus aureus, USA300, read-out: MICs.
From the text: (§2) The present invention was described based on a series of experiments examining the biological basis for CA-MRSA strains versus HA-MRSA strains, focusing on the role of PBPs in CA-MRSA and generally in β-lactam resistance. Experiments were first performed using mutants of various PBPs. In-frame deletion mutants of the genes encoding PBP3 (MW1504) and PBP4 (MW0604), pbp3 and pbp4 respectively, were generated in the CA-MRSA strain MW2 and in HA-MRSA strain COL using the temperature-sensitive allelic replacement vector pMAD (Arnaud, M. et al. 2004. Appl. Environ. Microbiol. 70:6887-6891). PBP4 was also deleted in the HA-MRSA strains Mu50 and N315 and in the CA-MRSA strain USA300. […] Minimum inhibitory concentrations (MICs) were determined according to the Clinical and Laboratory Standards Institute and are a standard method for defining antibiotic efficacy against different organisms. Bacteria, grown to an OD650=1, were added to cation-supplemented Mueller Hinton broth (CSMHB) to achieve a final concentration of 5×10^5 CFU/ml.
(§3) Although PBP4, similar to PBP2A, binds with low affinity to many β-lactams, PBP4 binds cefoxitin, a semi-synthetic β-lactam derived from cephamycin C, with high affinity (Nair, S. R. and C. E. Cherubin. 1978. Antimicrob. Agents Chemother. 14:866-875).
as §1
(Broth dilution looks for growth in wells or tubes with falling amounts of substance.)

The next assay relates to COL wild-type. Put plainly: MIC by microdilution (CLSI). The class given is cell-based, Staphylococcus aureus. To be noted: Staphylococcus aureus, read-out: MICs.
From the text: as §2, §3, §1

In another assay the test system is MW2 (USA400) wild-type. Put plainly: MIC by microdilution (CLSI). The class given is cell-based, Staphylococcus aureus. As to conditions: Staphylococcus aureus, USA400, read-out: MICs.
From the text: as §2, §3, §1

Another assay has as its system Mu50 wild-type. Put plainly: MIC by microdilution (CLSI). The assay is classed as cell-based, Staphylococcus aureus. To be noted: Staphylococcus aureus, read-out: MICs.
From the text: as §2, with “Experiments” for “The present invention was described based on a series of experiments examining the biological basis for CA-MRSA strains versus HA-MRSA strains, focusing on the role of PBPs in CA-MRSA and generally in β-lactam resistance. Experiments”
as §1

In a further assay the test system is MW2 ex Δpbp3/4. The assay is described as follows: MIC by microdilution (CLSI). The assay is classed as cell-based, Staphylococcus aureus. As to conditions: Staphylococcus aureus, read-out: MICs.
From the text: as §2, with “Experiments” for “The present invention was described based on a series of experiments examining the biological basis for CA-MRSA strains versus HA-MRSA strains, focusing on the role of PBPs in CA-MRSA and generally in β-lactam resistance. Experiments”
as §1

Another assay deals with MW2 ex Δpbp3. The assay is described as follows: MIC by microdilution (CLSI). The assay is classed as cell-based. As to conditions: Staphylococcus aureus, read-out: MICs.
From the text: as §2, with “Experiments” for “The present invention was described based on a series of experiments examining the biological basis for CA-MRSA strains versus HA-MRSA strains, focusing on the role of PBPs in CA-MRSA and generally in β-lactam resistance. Experiments”
as §1

Assay [1] deals with MW2 ex (MW2 cured of plasmid pMW2). The assay is described as follows: MIC by microdilution (CLSI). The assay is classed as cell-based. To be noted: Staphylococcus aureus, Table 1.
From the text: as §2, with “Experiments” for “The present invention was described based on a series of experiments examining the biological basis for CA-MRSA strains versus HA-MRSA strains, focusing on the role of PBPs in CA-MRSA and generally in β-lactam resistance. Experiments”
as §1

The test system of the next assay is MW2 ex Δpbp4. The assay is described as follows: MIC by microdilution (CLSI). The assay is classed as cell-based, Staphylococcus aureus. As to conditions: Staphylococcus aureus, read-out: MICs.
From the text: as §2, §1

The test system of another assay is MW2 Δpbp4. The assay is described as follows: MIC by microdilution (CLSI). The assay is classed as cell-based, Staphylococcus aureus.
From the text: as §2, §1

For the next assay, the system named is MW2 Δpbp4::pbp4. The assay is described as follows: MIC by microdilution (CLSI). The class given is cell-based, Staphylococcus aureus. To be noted: Staphylococcus aureus, read-out: MICs.
From the text: as §2, §1

Another assay relates to MW2 Δpbp3/4. Put plainly: MIC by microdilution (CLSI). The assay is classed as cell-based, Staphylococcus aureus. To be noted: Staphylococcus aureus, read-out: MICs.
From the text: as §2, §1

For another assay, the system named is USA300 Δpbp4. Put plainly: MIC by microdilution (CLSI). The assay is classed as cell-based, Staphylococcus aureus.
From the text: as §2, §1

Another assay deals with MW2 Δpbp3. The assay is described as follows: MIC by microdilution (CLSI). The class given is cell-based, Staphylococcus aureus. As to conditions: Staphylococcus aureus, read-out: MICs.
From the text: as §2, §1

Another assay has as its system N315 wild-type. Put plainly: MIC by microdilution (CLSI). The class given is cell-based, Staphylococcus aureus. As to conditions: Staphylococcus aureus, read-out: MICs.
From the text: as §2, §1

Regarding `CO/N=C(\C(=O)N[C@@H]1C(=O)N2C(C(=O)O)=C(COC(N)=O)CS[C@H]12)c1ccco1` [Cefuroxime, cefuroxime], the “affinity for PBP4” value in the assay on PBP4 is on record as “very low affinity”. The “effect on oxacillin MICs” value in the assay on CA- and HA-MRSA strains was “no effect whatsoever”.
Consider `CCOc1ccc2ccccc2c1C(=O)N[C@@H]1C(=O)N2[C@@H]1SC(C)(C)[C@@H]2C(=O)O` [NF, nafcillin], for which the MIC with USA300 wild-type came to 16 µg/mL (≈ 38.6 µM); in the assay with COL wild-type, 64 µg/mL (≈ 154 µM); in the assay with MW2 (USA400) wild-type, 16 µg/mL (≈ 38.6 µM); in the assay on Mu50 wild-type, 256 µg/mL (≈ 618 µM); in the assay on MW2 ex Δpbp3/4, 1 µg/mL (≈ 2.41 µM); in the assay on MW2 ex Δpbp3, 16 µg/mL (≈ 38.6 µM). The MIC turned out to be 16 µg/mL (≈ 38.6 µM) in [1]; 1 µg/mL (≈ 2.41 µM) with MW2 ex Δpbp4; 1 µg/mL (≈ 2.41 µM) with MW2 Δpbp4 (Staphylococcus aureus, read-out: MICs); 16 µg/mL (≈ 38.6 µM) with MW2 Δpbp4::pbp4; 1 µg/mL (≈ 2.41 µM) in the assay with MW2 Δpbp3/4; 1 µg/mL (≈ 2.41 µM) in the assay on USA300 Δpbp4 (Staphylococcus aureus, USA300, read-out: MICs). Moreover, the MIC with MW2 Δpbp3 was 16 µg/mL (≈ 38.6 µM); in the assay on N315 wild-type, 64 µg/mL (≈ 154 µM). Also, the “reduction in MIC on loss of pbp4” value in the assay with MW2 Δpbp4 ({}) and in the assay on USA300 Δpbp4 ({}) was 16 fold in each case.
`CN(C)CCn1nnnc1SCC1=C(C(=O)O)N2C(=O)[C@@H](NC(=O)Cc3csc(N)n3)[C@H]2SC1` [cefotiam]: the “affinity for PBP4” value with PBP4 is “no affinity”.

Source of the values: patent US9427468B2, “Compositions and methods for diagnosing and treating community-acquired methicillin-resistant Staphylococcus aureus” (priority 2007, dated 2016).
